In the first assay the target is T1, CIC-1 ion channel (Rattus norvegicus, UniProt P35524).
T1 construct: CIC-1 channels in native tissue of rat skeletal muscle fibres; from tissue; host or cells: whole soleus muscle of 12-14 week old Wistar rats
T1 sequence (P35524 1-994): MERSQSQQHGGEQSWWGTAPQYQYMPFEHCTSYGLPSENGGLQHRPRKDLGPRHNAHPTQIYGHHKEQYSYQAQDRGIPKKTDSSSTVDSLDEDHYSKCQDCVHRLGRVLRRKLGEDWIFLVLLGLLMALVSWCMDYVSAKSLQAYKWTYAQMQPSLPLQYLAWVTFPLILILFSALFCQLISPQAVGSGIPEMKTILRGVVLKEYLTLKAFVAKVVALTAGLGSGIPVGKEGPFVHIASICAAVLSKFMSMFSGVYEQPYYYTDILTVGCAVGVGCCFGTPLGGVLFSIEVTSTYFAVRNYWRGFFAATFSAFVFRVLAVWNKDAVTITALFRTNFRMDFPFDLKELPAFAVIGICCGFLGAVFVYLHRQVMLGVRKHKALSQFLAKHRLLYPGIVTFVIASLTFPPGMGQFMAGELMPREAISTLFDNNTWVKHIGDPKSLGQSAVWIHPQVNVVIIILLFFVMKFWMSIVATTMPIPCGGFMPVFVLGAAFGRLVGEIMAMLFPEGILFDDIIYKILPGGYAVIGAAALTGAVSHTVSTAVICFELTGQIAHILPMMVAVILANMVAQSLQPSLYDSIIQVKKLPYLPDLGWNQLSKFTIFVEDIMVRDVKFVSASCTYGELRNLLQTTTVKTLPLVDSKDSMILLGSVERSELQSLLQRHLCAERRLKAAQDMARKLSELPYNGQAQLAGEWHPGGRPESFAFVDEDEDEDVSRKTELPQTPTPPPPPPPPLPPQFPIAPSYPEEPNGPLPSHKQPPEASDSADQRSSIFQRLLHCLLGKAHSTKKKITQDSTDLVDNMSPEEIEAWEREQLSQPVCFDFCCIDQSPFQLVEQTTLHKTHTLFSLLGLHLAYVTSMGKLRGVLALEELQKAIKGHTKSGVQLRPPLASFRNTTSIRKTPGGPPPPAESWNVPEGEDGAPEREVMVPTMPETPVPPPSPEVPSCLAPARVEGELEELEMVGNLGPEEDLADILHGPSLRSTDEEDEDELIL
The assay can be described thus: Electrophysiological measurement (Gm, three micro-electrodes) of compound inhibition of CIC-1 in rat soleus muscle fibres. It is filed as cell-based. The following applies: approx. 30° C., four increasing compound concentrations, read-out: EC50 (inhibition of CIC-1 ion channel, reduction of Gm). The source says: FIG. 1. […] Please note that the drawing illustrates only the impaled fibre although it is part of an intact muscle that contains many such fibres. All electrodes recorded the membrane potential of the fibre and the two peripheral electrodes were used to inject current (−30 nA, 50 ms). The electrodes were inserted with known inter-electrode distances (X1, X2 and X3). After insertion, current was passed first via the V1 electrode and then via the V3 electrode. The resulting deflections in the membrane voltage were measured by the other electrodes. The steady state deflections in membrane potential were measured and divided by the magnitude of the injected current (−30 nA) to obtain transfer resistances. These were next plotted against inter-electrode distances, and fitted to an exponential function (Panel B), from which Gm could be calculated using linear cable theory. The approach described in panel A and B, was repeated for several muscle fibres in the muscle during exposure at increasing concentrations of compound E-8, with approx. 10 fibres at each concentration. Average Gm at each concentration was plotted as a function of compound concentration in panel C, and fitted to a 4-parameter sigmoidal function from which the EC50 value for the compound was obtained (dashed line)
Apparent CIC-1 affinity was reported by the concentration of compound at which 50% of the compound's full inhibition of CIC-1 was observed (EC50).
CIC-1 Cl^− ion channels generate around 80% of the total membrane conductance (Gm) in resting skeletal muscle fibres of most animals including rat and human (Bretag, A H. Muscle chloride channels. Physiological Reviews, 1987, 67, 618-724). […] CIC-1 inhibition would in such recordings be reflected by a reduction of Gm.
Experimentally, Gm was measured in individual fibres of whole rat soleus muscles using a three micro-electrodes technique described in this example and in full detail elsewhere (Riisager et al., Determination of cable parameters in skeletal muscle fibres during repetitive firing of action potentials. Journal of Physiology, 2014, 592, 4417-4429). Briefly, intact rat soleus muscles were dissected out from 12-14 week old Wistar rats and placed in an experimental chamber that was perfused with a standard Krebs Ringer solution containing 122 mM NaCl, 25 mM NaHCO3, 2.8 mM KCl, 1.2 mM KH2PO4, 1.2 mM MgSO4, 1.3 mM CaCl2, 5.0 mM D-glucose. During experiments, the solution was kept at approx. 30° C. and continuously equilibrated with a mixture of 95% O2 and 5% CO2, pH˜7.4. The experimental chamber was placed in Nikon upright microscope that was used to visualize individual muscle fibres and the three electrodes (glass pipettes filled with 2 M potassium citrate). For Gm measurements, the electrodes were inserted into the same fibre with known inter-electrode distances of 0.35-0.5 mm (V1-V2, X1) and 1.1-1.5 mm (V1-V3, X3) (FIG. 1A). The membrane potential of the impaled muscle fibre was recorded by all electrodes. Two of the electrodes were furthermore used to inject 50 ms current pulses of −30 nA. […] The steady state voltage deflection at each distance was divided by the magnitude of current injected (−30 nA) and the resulting transfer resistances were plotted against inter-electrode distance and the data was fitted to a mono-exponential function from which Gm could be calculated using linear cable theory (FIG. 1B).
To establish a dose response relationship, Gm was first determined in 10 muscle fibres in the absence of compound and then at four increasing compound concentrations with Gm determinations in 5-10 fibres at each concentration. The average Gm values at each concentration were plotted against compound concentration and the data was fitted to sigmoidal function to obtain an EC50 value (FIG. 1C).
For orientation: EC50 means the midpoint of the concentration-response curve. As for `C/C(=N\O)NC(=O)[C@@H](Oc1ccc(Br)cc1F)C(C)C` [Compound A-4, (2S)-2-(4-bromo-2-fluorophenoxy)-N-[1(hydroxyimino)ethyl]-3-methylbutanamide], the EC50 worked out at 2.2 µM.
On the same count and under the same terms, the result for `CC(=NO)NC(=O)[C@H](C)Oc1ccc(Br)cc1` [Compound A-6, (2S)-2-(4-bromophenoxy)-N-[1-(hydroxyimino)ethyl]propanamide] reads 2 µM; that for `C[C@H](Oc1ccc(Cl)cc1)C(=O)NOC1CCCC1` [Compound C-70, (2S)-2-(4-chlorophenoxy)-N-(cyclopentyloxy)propanamide], 4.6 µM.
The same measure, in the same setting: next, `CCONC(=O)[C@H](C)Oc1ccc(Cl)cc1` [Compound C-82, (2S)-2-(4-chlorophenoxy)-N-ethoxypropanamide]: 9.7 µM; `CCCONC(=O)[C@H](C)Oc1ccc(Cl)cc1` [Compound C-83, (2S)-2-(4-chlorophenoxy)-N-propoxypropanamide]: 3.5 µM.

The subject of another assay is isolated rat soleus muscles. The assay is described as follows: Measurement of force in an in vitro model: isolated rat soleus nerve-muscle preparation with tubocurarine. It is filed as cell-based. To be noted: 50 μM test compound, after 40 mins of compound exposure; 115 nM tubocurarine for 90 mins. The protocol:
FIG. 2. […] Force traces from a representative muscle stimulated to contract in 1) control condition before addition of neuromuscular blocking agent, 2) the force response to stimulation after 90 minutes incubation with Tubocurarine. […] The traces presented in panel A (1, 2, 3), correspond to the dotted lines in panel B, respectively.
Recovery of force is quantified as the percentage of the force prior to tubocurarine that is recovered by the compound.
The current disclosure relates to compounds that inhibit CIC-1 ion channels and increase muscle excitability and thereby improve muscle function in clinical conditions where muscle activation is failing. Such conditions result in loss of contractile function of skeletal muscle, weakness and excessive fatigue. In this series of experiments the compounds were tested for their ability to restore contractile function of isolated rat muscle when the neuromuscular transmission had been compromised akin to neuromuscular disorders.
Experimentally, soleus muscles from 4-5 week old rats were isolated with the motor nerve remaining attached. The nerve-muscle preparations were mounted in experimental setups that enabled electrical stimulation of the motor nerve. Stimulation of the motor nerve led to activation of the muscle fibres and ensuing force production that was recorded. The nerve-muscle preparations were also in these experiments incubated in the standard Krebs Ringer (see example 5) and the solution was heated to 30° C. and continuously equilibrated with a mixture of 95% O2 and 5% CO2, pH˜7.4.
After mounting the nerve-muscle preparation in the experimental setup, the contractile function of the muscle was initially assessed under the control conditions (FIG. 2A). […] The experimental condition mimics the failing neuromuscular transmission in a range of neuromuscular disorders. After addition of tubocurarine the contractile force declined over the next 90 mins to 10-50% of the control force. 50 μM of the test compound was then added and the contractile force recovered despite the continued presence of tubocurarine. To quantify the ability of the compound to restore force the percentage of the initial force that was restored was determined after 40 mins of compound exposure (FIG. 2B) and the point increase is reported in Table 3.
In the case of `CC(=NO)NC(=O)[C@H](C)Oc1ccc(Br)cc1F` [Compound A-5, (2S)-2-(4-bromo-2-fluorophenoxy)-N-[1-(hydroxyimino)ethyl]ropanamide], the “Point increase (%) of initial force that was restored” value (shortened to “Point increase (%)”) is 30%.
`C[C@H](Oc1ccc(Br)cc1C(C)(F)F)C(=O)NC#N` [Compound B-6]: the “Point increase (%)” value was 15%.
On to `CCC(F)(F)c1cc(Br)c(F)cc1O[C@@H](C)C(=O)NC#N` [Compound B-7, (2S)-2-[4-bromo-2-(1,1-difluoropropy1)-5-fluorophenoxy]-N-cyanopropanamide], for which the “Point increase (%)” value was determined as 37%.

Still in this assay, the particulars now being: Rattus norvegicus, 40 min; 50 μM test compound, after 40 mins of compound exposure; 115 nM tubocurarine for 90 mins; read-out: Point increase (%) of initial force that was restored.
Take `CC(=O)N1CC(ON(C(C)=O)C(=O)[C@H](C)Oc2ccc(Cl)cc2)C1` [Compound C-3, (2S)-N-acetyl-N-[(1-acetylazetidin-3-yl)oxy]-2-(4-chlorophenoxy)propanamide]: the activation at 50 µM turned out to be 29%.
For the molecule `CC(=O)N1CCC(ON(C(C)=O)C(=O)[C@H](C)Oc2ccc(Br)cc2)C1` (stereo partly drawn) [Compound C-12, (2S)-N-acetyl-N-[(1-acetylpyrrolidin-3-yl)oxy]-2-(4-bromophenoxy)propanamide], the activation at 50 µM turned out to be 18%.
For `CC(=O)N1CCC(ON(C(C)=O)C(=O)[C@H](C)Oc2ccc(Cl)cc2)C1` (stereo partly drawn) [Compound C-16, (2S)-N-acetyl-N-[(1-acetylpyrrolidin-3-yl)oxy]-2-(4-chlorophenoxy)propanamide], the activation at 50 µM is 23%.
On the same count and under the same terms, next, `C[C@H](Oc1ccc(Br)cc1F)C(=O)NOC1CCC1` [Compound C-31, (2S)-2-(4-bromo-2-fluorophenoxy)-N-cyclobutoxypropanamide]: 56%.
The same measure, in the same setting: the result for `C[C@H](Oc1ccc(Cl)cc1)C(=O)NOCc1ccon1` [Compound C-39, (2S)-2-(4-chlorophenoxy)-N-[(1,2-oxazol-3-yl)methoxy]propanamide] reads 49%; that for `CONC(=O)[C@H](C)Oc1ccc(Cl)cc1F` [Compound C-40, (2S)-2-(4-chloro-2-fluorophenoxy)-N-methoxypropanamide], 24%.
Turning to `C[C@H](Oc1ccc(Cl)cc1)C(=O)NOC(C)(C)C` [Compound C-43, (2S)-N-(tert-butoxy)-2-(4-chlorophenoxy)propanamide], the activation at 50 µM came out at 20%.
Same read-out and setting: the result for `C[C@H](Oc1ccc(Cl)cc1)C(=O)NOC1CCCCO1` (stereo partly drawn) [Compound C-65, (2S)-2-(4-chlorophenoxy)-N-(oxan-2-yloxy)propanamide] reads 26%; that for `C[C@H](Oc1ccc(Cl)cc1)C(=O)NOCc1nccs1` [Compound C-66, (2S)-2-(4-chlorophenoxy)-N-[(1,3-thiazol-2-yl)methoxy]propanamide], 21%; that for `C[C@H](Oc1ccc(Cl)cc1)C(=O)NOC1CC(F)(F)C1` [Compound C-67, (2S)-2-(4-chlorophenoxy)-N-(3,3-difluorocyclobutoxy)propanamide], 23%.
Same read-out and setting: the result for `C[C@H](Oc1ccc(Cl)cc1)C(=O)NOCCC1CCCC1` [Compound C-71, (2S)-2-(4-chlorophenoxy)-N-(2-cyclopentylethoxy)propanamide] reads 25%.
Still for that read-out and setting: next, `FCC[C@H](Oc1ccc(Br)cc1-c1ccon1)c1nn[nH]n1` [Compound E-1]: 21%; `C[C@H](Oc1ccc(Br)cc1)c1nn[nH]n1` [Compound E-6, 5-[(1S)-1-(4-bromophenoxy)ethyl]-2H-1,2,3,4-tetrazole]: 21%.
`C=Cc1cc(Cl)ccc1O[C@@H](C)c1nnn[nH]1` [Compound E-12, 5-[(1S)-1-(4-chloro-2-ethenylphenoxy)ethyl]-1H-1,2,3,4-tetrazole]: the activation at 50 µM was 21%.

These data come from patent publication US20220274938A1, “5-[(1S)-1-(4-BROMOPHENOXY)ETHYL]-2H-TETRAZOLE DERIVATIVES AND RELATED COMPOUNDS AS CLC-1 ION CHANNEL INHIBITORS FOR TREATING NEUROMUSCULAR DISORDERS” (NMD PHARMA A/S, priority 2019, published 2022).
